Data on 13 compounds can be found in patent US7700634B2, “(Indol-3-yl) heterocycle derivatives as agonists of the cannabinoid CB1 receptor” (N.V. Organon, priority 2004, dated 2010).

Structures can show the parent of a compound that is named as a salt. A value given as a limit tells only on which side of the number the result lay.

The subject of test [1] is Mice. Kind of test: Tail flick latency in mice. In kind it is in vivo. Conditions: Mus musculus, iv, administered intravenously, ED50 calculated at Tmax, significantly increased the tail flick latency, read-out: ED50 (increase of tail flick latency). As for the experimental part:
Tail Flick Latency in Mice
Mice were trained to sit still in a tail flick apparatus (Ugo Basile, Italy) whilst tail flick latency was measured. The tail was exposed to a focused beam of radiant heat at a point approximately 2.5 cm from the tip. Tail flick latency was defined as the interval between the appliance of the thermal stimulus and withdrawal of the tail. A 12 second cut-off was employed to prevent tissue damage. Four groups of eight mice were treated with vehicle or one of three doses of the test compound, administered intravenously (vehicle: 10% Tween-80 in saline; injection volume 10 ml/kg). Tail flick latency was measured before administration of the test compound and at regular intervals (typically 20, 40 and 60 minutes) after compound administration. The ED50 was calculated at Tmax.

The target of test [2] is T1, human CB1 receptor (Homo sapiens, UniProt P21554).
T1 construct: expressed in transfected cells; host or cells: Chinese Hamster Ovary (CHO) cells
The test can be described thus: In-vitro efficacy and potency at the human CB1 receptor expressed in CHO cells (luciferase reporter gene assay). In kind it is cell-based. The following applies: CHO cells expressing human CB1 receptor and luciferase reporter gene; 5 h incubation at 37° C. The protocol:
In-vitro Determination of Efficacy and Potency at the Human CB1 Receptor Expressed in CHO Cells
Chinese Hamster Ovary (CHO) cells expressing the human CB1 receptor and a luciferase reporter gene were suspended in phenol red/serum free DMEM/F-12 nut mix containing penicillin/streptomycin (50 U/50 μg/ml) and fungizone (1 μg/ml) and seeded into 96 well plates at a density of 3×10^4 cells per well (100 μl final volume). Cells were incubated overnight (approx. 18 h at 37° C., 5% CO2/95% air) prior to assay. […] The stock solutions (10 μl) were added directly to the relevant wells. The plates were incubated at 37° C. for 5 h to allow agonist-induced expression of the luciferase enzyme. Under subdued light, LucLite substrate (Packard; reconstituted as per manufacturer's instructions; 100 μl) was added to each well. Plates were covered with Top Seal and then incubated at room temperature for 5 minutes before counting on the Packard TopCount (single photon counting, 0.01 minute count time, 5 minute count delay).

T1 sequence (P21554 whole entry): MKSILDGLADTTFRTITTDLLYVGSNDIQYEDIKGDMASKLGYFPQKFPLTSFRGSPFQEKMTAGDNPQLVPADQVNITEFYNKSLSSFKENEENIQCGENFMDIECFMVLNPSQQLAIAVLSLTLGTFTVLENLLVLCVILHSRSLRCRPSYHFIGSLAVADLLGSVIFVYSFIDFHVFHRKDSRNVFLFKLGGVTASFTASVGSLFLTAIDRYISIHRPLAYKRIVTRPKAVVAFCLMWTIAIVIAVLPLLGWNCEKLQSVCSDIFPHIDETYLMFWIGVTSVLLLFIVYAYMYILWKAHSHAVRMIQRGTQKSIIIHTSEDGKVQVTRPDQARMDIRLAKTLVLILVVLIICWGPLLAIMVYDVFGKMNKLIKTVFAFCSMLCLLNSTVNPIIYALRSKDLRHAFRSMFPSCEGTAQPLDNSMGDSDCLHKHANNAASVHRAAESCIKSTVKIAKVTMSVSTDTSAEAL

As to `COc1cccc2c(-c3noc([C@H]4CCCN4C)n3)cn(CC3CCCCC3)c12` [Example 2G, (R)-1-(Cyclohexyl)methyl-7-methoxy-3-[5-(1-methylpyrrolidin-2-yl)-[1,2,4]oxadiazol-3-yl]-1H-indole, hydrochloride salt], in test [1], the ED50 (usually the dose at which the effect has come halfway, by size or by number of responders) is under 5 µmol/kg. The midpoint of the response in test [2], the EC50, lay at 0.0316 µM.

Take `CCN(CC)Cc1nc(-c2cn3c4c(cccc24)OC[C@H]3C2CCCCC2)ns1` [Example 13, (R)-3-Cyclohexyl-6-{5-[(diethylamino)methyl]-[1,2,4]-thiadiazol-3-yl}-2,3-dihydropyrrolo[1,2,3-de]-1,4-benzoxazine, hydrochloride salt]: in test [1], the median effective dose (ED50) was under 5 µmol/kg. Further, the EC50 – broadly, the midpoint of the concentration-response curve – in test [2] was 0.00794 µM.

In the case of `Fc1cccc2c(-c3nsc(CN4CCCC4)n3)cn(CC3CCOCC3)c12` [Example 14B, 7-fluoro-3-{5-[(pyrrolidin-1-yl)methyl]-[1,2,4]-thiadiazol-3-yl}1-(tetrahydropyran-4-yl)methyl-1H-indole, hydrochloride salt], the ED50 in test [1] was under 5 µmol/kg. The compound further had a concentration giving a half-maximal response (EC50) in test [2] of 0.0501 µM.

As for `CCN(CCOC)Cc1nc(-c2cn(CC3CCOCC3)c3c(Cl)cccc23)ns1` [Example 15A, 7-chloro-3-(5-{[N-ethyl-N-(2-methoxyethyl)amino]methyl}-[1,2,4]-thiadiazol-3-yl)-1-(tetrahydropyran-4-yl)methyl-1H-indole, hydrochloride salt], the ED50 in test [1] is under 5 µmol/kg. The EC50 in test [2] was 0.01 µM.

Take `Clc1cccc2c(-c3nsc(CN4CCCC4)n3)cn(CC3CCOCC3)c12` [Example 15B, 7-chloro-3-{5-[(Pyrrolidin-1-yl)methyl]-[1,2,4]-thiadiazol-3-yl}1-(tetrahydropyran-4-yl)methyl-1H-indole, hydrochloride salt]: the 50% effective dose (ED50) in test [1] was under 5 µmol/kg. The compound also gave an EC50 in test [2] of 0.02 µM.

`CCN(CCO)Cc1nc(-c2cn(CC3CCOCC3)c3c(Cl)cccc23)ns1` [Example 15C, 7-chloro-3-(5-{[N-ethyl-N-(2-hydroxyethyl)amino]methyl}-[1,2,4]-thiadiazol-3-yl)-1-(tetrahydropyran-4-yl)methyl-1H-indole]: in test [1], the ED50 was under 5 µmol/kg. In test [2], this compound showed an EC50 of 0.01 µM.

As to `COCCN(Cc1csc(-c2cn(CC3CCCCC3)c3c(Cl)cccc23)n1)C(C)C` [Example 20, 7-Chloro-1-(cyclohexyl)methyl-3-(4-{[N-isopropyl-N-(2-methoxyethyl)amino]methyl}-[1,3]-thiazol-2-yl)-1H-indole, hydrochloride salt], the median effective dose (ED50) in test [1] is under 5 µmol/kg. The compound further had an EC50 in test [2] of 0.00501 µM.

In the case of `CC(C)N(CCO)Cc1csc(-c2cn(CC3CCOCC3)c3c(Cl)cccc23)n1` [Example 23B, 7-Chloro-3-(4-{[N-(2-hydroxyethyl)-N-isopropylamino]methyl}-1,3-thiazol-2-yl)-1-(tetrahydropyran-4-yl)methyl-1H-indole], the median effective dose (ED50) in test [1] was under 5 µmol/kg.

For the compound `CCN(CCO)Cc1csc(-c2cn(CC3CCOCC3)c3c(Cl)cccc23)n1` [Example 23C, 7-Chloro-3-(4-{[N-ethyl-N-(2-hydroxyethyl)amino]methyl}-[1,3]-thiazol-2-yl)-1-(tetrahydropyran-4-yl)methyl-1H-indole], the 50% effective dose (ED50) in test [1] was under 5 µmol/kg.

Take `CCN(CC)Cc1ncc(-c2cn(CC3CCCCC3)c3c(OC)cccc23)o1` [Example 32, 1-(Cyclohexyl)methyl-3-{2-[(diethylamino)methyl]-[1,3]-oxazol-5-yl}-7-methoxy-1H-indole, hydrochloride salt]: in test [2], a half-maximal response (EC50) required 0.0501 µM.

`CCN1Cc2snc(-c3cn(CC4CCCCC4)c4c(OC)cccc34)c2C1` [Example 33, 1-(Cyclohexyl)methyl-3-(5-ethyl-5,6-dihydro-4H-pyrrolo[3,4-d]isothiazol-3-yl)-7-methoxy-1H-indole, hydrochloride salt] showed an EC50 in test [2] of 0.0794 µM.

For the compound `COc1cccc2c(-c3nnc(CN4CCCC4)s3)cn(CC3CCCCC3)c12` [Example 38, 1-(Cyclohexyl)methyl-7-methoxy-3-{5-[(pyrrolidin-1-yl)methyl]-[1,3,4]-thiadiazol-2-yl}-1H-indole, hydrochloride salt], the EC50 in test [2] was 0.0794 µM.

In the case of `CC1(C)CCCN1Cc1nc(-c2cn(CC3CCOCC3)c3c(Cl)cccc23)no1` [Example 39, 7-Chloro-3-{5-[(2,2-dimethyl-pyrolidin-1-yl)methyl]-[1,2,4]oxadiazol-3-yl}-1-(tetrahydropyran-4-yl)methyl-1H-indole, hydrochloride salt], in test [1], the ED50 is under 5 µmol/kg. This compound showed an EC50 in test [2] of 0.0316 µM.
